Experimental data reported in US10525030B2 (priority 2013, dated 2020).

System: lithium-pilocarpine model of temporal lobe epilepsy
Experiment: Neuroprotection activity using the lithium-pilocarpine model of temporal lobe epilepsy
Assay type: in vivo, Male Sprague-Dawley rats
Details: rats after Li-pilocarpine
Description: Male Sprague-Dawley rats (purchased from Orient Bio Inc. Korea) of body weight 175-230 g were used for these studies and housed 4 rats per cage for 4-5 days. On the day prior to status epilepsy (SE), rats received 127 mg/kg lithium chloride (Sigma, St. Louis, Mo., U.S.A.) intraperitoneal (i.p.). Approximately 18-20 h following this treatment, rats were given an i.p. injection of 43 mg/kg pilocarpine (Sigma). An i.p. injection of 2 mg/kg methyl-scopolamine (Sigma) was administered 30 min prior to pilocarpine to block the effects of the muscarinic agonist on peripheral cholinergic receptors. The effects of various dose compound (or example) 1, 65 and 67, dissolved in 30% Poly Ethylene Glycol 400 (Acros Organics, Geel, Belgium) were studied at 30 min after SE onset. The drugs were administered i.p. in a volume of 2 ul/g body weight. Pharmacological effects of all the test materials were evaluated to compared test groups (n=8) with a control group (n=8). Control group was administrated vehicle, only. All animals were kept for 2 weeks to look at the mortality and quantification of cell densities was performed 14 days after SE in test groups and control rats not subjected to SE. The animals were deeply anesthetized by injection lumpun plus zoletile, 7:3 (v/v) and perfused transcardially with 150 ml of ice-cold 0.01 M phosphate buffer followed by 250 ml of freshly prepared ice-cold 4% paraformaldehyde (PFA) in 0.1 M phosphate buffer, pH 7.4. The brains were removed and postfixed in the same fixative for an additional 22˜24 h at 4° C., and then transferred to 30% sucrose for cryoprotection until the samples were precipitated. Brains were frozen in methyl butane with dry ice and stored at −80° C. Serial coronal […] slices were cut in a cryostat (Microtome HM 1850, Leica, Germany) and put the sections onto the slides, and air-dried before thionine staining. Every fifth section was selected for morphometric analysis.
Neuronal density quantification was performed automatically with the MCID Elite software (Interfocus Ltd, Linton, UK) by counting the number of neurons present in a defined area of the structure of interest (dorsal hippocampus—CA1, CA3, DZ) and carried out with a microscopic enlargement of 200- or 400-fold. Countings were performed twice on each side in each region by a single observer unaware of animal's treatment and averaged. In each structure, the mean and minimal surface area of the neurons were determined in order to count only neurons and exclude glial cells with smaller cell bodies. (Ref., Jennifer François, Katuschia Germe, Arielle Ferrandon, Estelle Koning, Astrid Nehlig (2011) Carisbamate has powerful disease-modifying effects in the lithium-pilocarpine model of temporal lobe epilepsy, Neuropharmacology 61: 313˜328)
Data were expressed as mean±sem. Statistical analysis of difference between groups was evaluated by ANOVA followed by Dunnett's test or Bonferroni test as a post hoc analysis using Statistica (Statsoft, Inc., USA). Difference was considered statistically significant when the p value was less than 0.05.

| SMILES | survival rate (30 mg/kg i.p. 30 min after SE onset, kept 2 weeks (FIG. 5)) | survival rate (120 mg/kg i.p. 30 min after SE onset, kept 2 weeks (FIG. 5)) | survival rate (5 mg/kg i.p. 30 min after SE onset, kept 2 weeks (FIG. 4)) | survival rate (25 mg/kg i.p. 30 min after SE onset, kept 2 weeks (FIG. 4)) | survival rate (50 mg/kg i.p. 30 min after SE onset, kept 2 weeks (FIG. 4)) |
| --- | --- | --- | --- | --- | --- |
| CC[C@H](OC(N)=O)[C@@H](O)c1ccccc1I [Compound 67, 1-(2-iodophenyl)-(S)-1-hydroxybutyl-(S)-2-carbamate] | 25% | 100% |  |  |  |
| C[C@H](OC(N)=O)[C@@H](O)c1ccccc1I [Compound 65, 1-(2-iodophenyl)-(S)-1-hydroxypropyl-(S)-2-carbamate] |  |  | 50% | 62.5% | 100% |
